Square brackets hold non-standard residues; d marks the D form. Peptide text beside a SMILES is read from it. ξ: configuration not given here. ξM = CSCCC(N)C(=O)O
Assays:
[1] = Hydroxyl radical OH• scavenging, deoxyribose protection test (Halliwell method); conditions: rate constant of S on OH•; mean (± SD) of 3 independent experiments
From the text: Le test, réalisé selon la méthode décrite par B. Halliwell et coll. […] Le pouvoir protecteur est déduit de la comparaison des cinétiques de réaction, exprimées par une constante de vitesse de S sur OH• (piégeage de OH•).
Les constantes de vitesse correspondent à la valeur moyenne (± D.S.) calculée à partir de 3 expériences indépendantes

[2] = tested on: co-culture in vitro de mélanocytes et de kératinocytes; assay: In vitro melanocyte/keratinocyte co-culture model of the "mélano-épidermique" unit: melanic response after UV; assay type: cell-based; set-up: unit not given here; conditions: for réponse mélanique: co-culture + MdC "ARG-free" irradiée par UVB: ARG-free medium (insufficient physiological arginine); for réponse mélanique: co-culture + MdC "ARG-free" irradiée par UVB / réponse mélanique: co-culture + MdC "ARG = 84mg/L" irradiée par UVB: UVB irradiated; for réponse mélanique: co-culture + MdC "ARG = 84mg/L" irradiée par UVB / réponse mélanique: co-culture + MdC "ARG = 84mg/L" sans irradiation: standard medium with supra-physiological arginine; for réponse mélanique: co-culture + MdC "ARG = 84mg/L" sans irradiation: no irradiation
From the text: Test 2 : démonstration de l'effet des dérivés d'arginine sur l'unité "mélano-épidermique" et la réponse mélanique
Nous avons mis au point un modèle expérimental reproduisant l'unité "mélano-épidermique", et qui permet de mettre en évidence les effets d'un apport exogène de dérivés d'arginine sur la réponse mélanique à la suite de rayonnements U.V. (effet direct sur les mélanocytes et indirect via la "communication cellulaire" entre kératinocytes et mélanocytes). Il s'agit d'un modèle de co-culture in vitro de mélanocytes et de kératinocytes (voir représentation schématique du modèle), possédant un milieu de culture (MdC) particulier. [drawing]
Le fond poreux de la chambre supérieure permet le passage, d'un compartiment à l'autre, des facteurs endogènes sécrétés par les cellules (NO) et la substance (S).

CCOC(=O)[C@H](CCCNC(=N)N)NC(C)=O [NAc-L-ARG-OEt, N-acetyl-L-arginine ethyl ester]
constante de vitesse de piégeage [1]: 5,2 (±0,2)x10^9 M^-1.S^-1 | réponse mélanique: co-culture + MdC "ARG-free" irradiée par UVB ([2]; substance 0,12 mM): 30,7 | réponse mélanique: co-culture + MdC "ARG = 84mg/L" irradiée par UVB ([2]; substance 0,12 mM): 39,5 | réponse mélanique: co-culture + MdC "ARG = 84mg/L" sans irradiation ([2]; substance 0,12 mM): 23,1 | réponse mélanique: co-culture + MdC "ARG-free" irradiée par UVB ([2]; substance 0,24 mM): 37,5 | réponse mélanique: co-culture + MdC "ARG = 84mg/L" irradiée par UVB ([2]; substance 0,24 mM): 42,6 | réponse mélanique: co-culture + MdC "ARG = 84mg/L" sans irradiation ([2]; substance 0,24 mM): 20,9 | réponse mélanique: co-culture + MdC "ARG-free" irradiée par UVB ([2]; substance 0,48 mM): 43,8 | réponse mélanique: co-culture + MdC "ARG = 84mg/L" irradiée par UVB ([2]; substance 0,48 mM): 38,4 | réponse mélanique: co-culture + MdC "ARG = 84mg/L" sans irradiation ([2]; substance 0,48 mM): 24,4

CCOC(=O)[C@@H](NC(=O)[C@H](CCCNC(=N)N)NC(C)=O)[C@@H](C)CC [NAc-L-ARG-L-ILE-OEt, N-acetyl-L-arginyl-(D ou L)-isoleucine ethyl ester] (Ac-Arg-Ile-OEt)
constante de vitesse de piégeage [1]: 6,1 (±0,4)x10^9 M^-1.S^-1

CCOC(=O)[C@H](CCCNC(=N)N)NC(=O)[C@H](Cc1ccc(O)cc1)NC(C)=O [NAc-L-TYR-L-ARG-OEt, N-acetyl-L-tyrosyl-L-arginine ethyl ester]
constante de vitesse de piégeage [1]: 8,1 (±0,3)x10^9 M^-1.S^-1

CCOC(=O)[C@H](CCCNC(=N)N)NC(=O)C(CCSC)NC(C)=O (stereo partly drawn) [NAc-(D,L)-MET-L-ARG-OEt, N-acetyl-(D ou L)methionyl-L-arginine ethyl ester] (Ac-[ξM]-Arg-OEt)
constante de vitesse de piégeage [1]: 0,7 (±0,2)x10^10 M^-1.S^-1

N[C@@H](Cc1c[nH]cn1)C(=O)O [L-histidine, reference compound]
constante de vitesse de piégeage [1]: 2,5 (±0,2)x10^9 M^-1.S^-1

CCOC(=O)[C@H](CCCNC(=N)N)NC(=O)[C@H](Cc1c[nH]cn1)NC(C)=O [NAc-L-HIS-L-ARG-OEt, N-acetyl-(D ou L)-histidyl-L-arginine ethyl ester] (Ac-His-Arg-OEt)
constante de vitesse de piégeage [1]: 9,0 (±0,2)x10^9 M^-1.S^-1 | réponse mélanique: co-culture + MdC "ARG-free" irradiée par UVB ([2]; substance 0,12 mM): 38,8 | réponse mélanique: co-culture + MdC "ARG = 84mg/L" irradiée par UVB ([2]; substance 0,12 mM): 41,6 | réponse mélanique: co-culture + MdC "ARG = 84mg/L" sans irradiation ([2]; substance 0,12 mM): 22,7 | réponse mélanique: co-culture + MdC "ARG-free" irradiée par UVB ([2]; substance 0,24 mM): 41,0 | réponse mélanique: co-culture + MdC "ARG = 84mg/L" irradiée par UVB ([2]; substance 0,24 mM): 36,2 | réponse mélanique: co-culture + MdC "ARG = 84mg/L" sans irradiation ([2]; substance 0,24 mM): 22,5 | réponse mélanique: co-culture + MdC "ARG-free" irradiée par UVB ([2]; substance 0,48 mM): 42,5 | réponse mélanique: co-culture + MdC "ARG = 84mg/L" irradiée par UVB ([2]; substance 0,48 mM): 40,7 | réponse mélanique: co-culture + MdC "ARG = 84mg/L" sans irradiation ([2]; substance 0,48 mM): 18,8

N=C(N)NCCC[C@H](N)C(=O)O [L-arginine]
constante de vitesse de piégeage [1]: 1,5 (±0,2)x10^9 M^-1.S^-1

From patent EP1325735A2, “Use of L-arginine derivatives as photo-protecting agents and enhancing melanic response in cosmetic compositions” (EXSYMOL S.A.M., priority 2002, dated 2003)
